Laboratory results: patent US9365508B2, “Aroyl thiourea derivatives” (University Court of the University of St Andrews, priority 2009, dated 2016)
Structures can show the parent of a compound that is named as a salt.

Legend:
SIRT1 = SIRT1 (Homo sapiens (Human), UniProt Q96EB6); assay: SIRT1 inhibition assay (Fluor de Lys fluorescence-based assay kit); type: biochemical; conditions: human recombinant enzyme; for inhibition at 60 µM: read-out: SirT1 (% inhib at 60 μM)
Description: (§1) SIRT1 and SIRT2 Inhibition Assays
(§2) All compounds were tested for inhibition of SIRT1 and SIRT2 using human recombinant enzymes available in the Fluor de Lys fluorescence-based assay kit (BIOMOL, AK555, AK556). All other required reagents were provided in the kit which was stored at −78° C. Before use, small aliquots of each enzyme (2-3 μL) were prepared, snap frozen in liquid nitrogen and stored at −78° C. Fresh dilutions of compounds were prepared in DMSO and further diluted in assay buffer. NAD^+ (12.5 […] at 4 mM) and Fluor de Lys SIRT1 or SIRT2 (12.5 μL at 100 μM) in assay buffer were added to a white 96 well plate, followed by compound (10 μL) and lastly enzyme (15 μL, 0.07 U/μL or SIRT1 and 0.3 U/μL for SIRT2). After incubation for 1 h at 37° C. a developer solution (50 μL) was added to each reaction. The developer solution contained 38 μL buffer, 10 μL developer and 2 μL nicotinamide (50 mM) per reaction. The plate was then incubated for 45 min at rt and then read using a Spectra Max Gemini fluorimeter with an excitation wavelength of 355 nm and an emission wavelength of 460 nm. SigmaPlot software was used to generate fit curves for raw plots and the equation for each curve was used to calculate IC50 data.

SIRT2 = SIRT2 (Homo sapiens (Human), UniProt Q8IXJ6); assay: SIRT2 inhibition assay (Fluor de Lys fluorescence-based assay kit); type: biochemical; conditions: human recombinant enzyme; for inhibition at 60 µM: read-out: SirT2 (% inhib at 60 μM)
Description: as §1, §2

3T3L1 cells = assay: Adipocyte differentiation assay (ORO red lipid staining); type: cell-based, mouse; conditions: 10 μM compound, 3T3L1 cells in the 8 media, in duplicate, versus controls with and without DMSO
Description: Adipocyte Differentiation Assay
3T3L1 cells (i.e. mouse fibroblasts that differentiate into adipocytes in so-called differentiation medium) were treated in a low glucose differentiation medium (as described by F Wang and Q Tong (Molecular Biology of the Cell, 20, 2009, 801-808) with either (i) a normal growth medium (DMEM), (ii) a low glucose differentiation medium containing ciglitazone, d-biotin, dexamethasone, IBMX, insulin and L-thyroxine, or a (iii) a low glucose differentiation medium as per (ii) but lacking one of the components (i.e 6 different media each comprising five components selected from ciglitazone, d-biotin, dexamethasone, IBMX, insulin and L-thyroxine). Cells were stained with ORO red to detect lipid.
The same differentiation assays with each of the 8 differentiation media were then repeated but with addition of DMSO solvent and also 10 μM of compound D3 (5-dimethylamino-pentanoic acid {4-[3-(3,5-dichloro-4-methoxy-benzoyl)-thioureido]-phenyl}-amide hydrochloride) in duplicate.

Sequence of SIRT1 (Q96EB6 whole entry): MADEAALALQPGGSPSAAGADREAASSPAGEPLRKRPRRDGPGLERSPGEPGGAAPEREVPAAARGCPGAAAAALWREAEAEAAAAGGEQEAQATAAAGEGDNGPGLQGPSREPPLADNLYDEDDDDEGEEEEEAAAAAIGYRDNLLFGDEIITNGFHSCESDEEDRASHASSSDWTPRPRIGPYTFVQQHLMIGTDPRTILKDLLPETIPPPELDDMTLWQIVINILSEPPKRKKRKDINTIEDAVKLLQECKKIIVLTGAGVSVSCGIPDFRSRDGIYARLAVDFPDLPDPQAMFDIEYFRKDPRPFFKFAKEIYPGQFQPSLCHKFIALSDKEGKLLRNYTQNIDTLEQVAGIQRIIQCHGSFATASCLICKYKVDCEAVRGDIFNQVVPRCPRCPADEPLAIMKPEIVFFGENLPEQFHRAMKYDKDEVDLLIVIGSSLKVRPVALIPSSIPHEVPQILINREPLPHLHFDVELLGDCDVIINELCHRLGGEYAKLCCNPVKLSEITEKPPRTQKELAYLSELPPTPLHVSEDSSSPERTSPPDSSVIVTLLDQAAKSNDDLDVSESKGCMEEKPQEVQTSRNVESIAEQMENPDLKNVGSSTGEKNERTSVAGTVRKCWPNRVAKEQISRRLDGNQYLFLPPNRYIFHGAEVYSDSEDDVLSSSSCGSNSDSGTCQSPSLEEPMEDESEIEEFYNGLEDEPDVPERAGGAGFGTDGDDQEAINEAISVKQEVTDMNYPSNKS
Sequence of SIRT2 (Q8IXJ6 whole entry): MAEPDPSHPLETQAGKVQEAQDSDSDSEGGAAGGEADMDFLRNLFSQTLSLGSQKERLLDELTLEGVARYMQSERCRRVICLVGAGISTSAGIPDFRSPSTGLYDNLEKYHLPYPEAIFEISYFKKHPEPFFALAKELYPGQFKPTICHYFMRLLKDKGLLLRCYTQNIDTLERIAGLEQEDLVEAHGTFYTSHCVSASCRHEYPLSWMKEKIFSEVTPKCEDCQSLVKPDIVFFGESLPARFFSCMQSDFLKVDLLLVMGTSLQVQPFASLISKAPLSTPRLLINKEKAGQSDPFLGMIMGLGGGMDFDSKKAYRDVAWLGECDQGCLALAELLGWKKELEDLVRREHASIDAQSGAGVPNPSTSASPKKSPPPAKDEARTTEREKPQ

Row | inhibition at 60 µM (SIRT1; 60 μM compound) | IC50 (SIRT1) | inhibition at 60 µM (SIRT2; 60 μM compound) | IC50 (SIRT2) | SirT1 (% inhib at 60 μM) (SIRT1; 60 μM compound) | SirT2 (% inhib at 60 μM) (SIRT2; 60 μM compound) | SMILES | oro red staining (adipogenesis) (3T3L1 cells)
1 | 35% | 62.5 ± 3.6 µM | 80.3% | 10.7 ± 1.6 µM | – | – | COc1c(Cl)cc(C(=O)NC(=S)Nc2ccc(NC(=O)CCCCN(C)C)cc2)cc1Cl.Cl [Compound D3, 5-Dimethylamino-pentanoic acid {4-[3-(3,5-dichloro-4-methoxy-benzoyl)-thioureido]-phenyl}-amide hydrochloride] | increases the oro red staining
2 | 55.7% | – | 61.5% | – | – | – | CN(C)CCCCC(=O)Nc1ccc(NC(=S)NC(=O)c2ccc(N(C)C)cc2)cc1 [Compound 332a, 5-Dimethylamino-pentanoic acid {4-[3-(4-dimethylamino-benzoyl)-thioureido]-phenyl}-amide hydrochloride] | –
3 | 93.5% | 18.3 ± 0.3 µM | 91.1% | 4.6 ± 0.6 µM | – | – | CN(C)CCCCC(=O)Nc1ccc(NC(=S)NC(=O)c2ccc(C(C)(C)C)c(Br)c2)cc1 [Compound 361a, 5-Dimethylamino-pentanoic acid {4-[3-(3-bromo-4-tert-butyl-benzoyl)-thioureido]-phenyl}-amide hydrochloride] | –
4 | 24% | 69.6 ± 0.6 µM | 77.1% | 34.3 ± 7.2 µM | – | – | Cc1cc(C(=O)NC(=S)Nc2ccc(NC(=O)CCCCN(C)C)cc2)ccc1Br [Compound C5, 5-Dimethylamino-pentanoic acid {4-[3-(4-bromo-3-methyl-benzoyl)-thioureido]-phenyl}-amide hydrochloride] | –
5 | – | – | – | – | 10.9% | 17.1% | CN(C)CCCCC(=O)Nc1ccc(NC(=S)NC(=O)c2ccc(C(F)(F)F)cc2)cc1.Cl [Compound B6] | –
6 | 10% | > 90 µM | 48.5% | 80.7 ± 14.4 µM | – | – | Cc1ccccc1C(=O)NC(=S)Nc1ccc(NC(=O)CCCCN(C)C)cc1 [Compound A1, 5-Dimethylamino-pentanoic acid {4-[3-(2-methyl-benzoyl)-thioureido]-phenyl}-amide hydrochloride] | –
7 | 27.5% | – | 65.1% | – | – | – | Cc1ccc(C(=O)NC(=S)Nc2ccc(NC(=O)CCCCN(C)C)cc2)cc1C [Compound C4, 5-Dimethylamino-pentanoic acid {4-[3-(3,4-dimethyl-benzoyl)-thioureido]-phenyl}-amide hydrochloride] | –
8 | 8% | 70.9 ± 4.2 µM | 68% | 31.9 ± 6.4 µM | – | – | CN(C)CCCCC(=O)Nc1ccc(NC(=S)NC(=O)c2ccc(Cl)c(Cl)c2)cc1 [Compound 311d, 5-Dimethylamino-pentanoic acid {4-[3-(3,4-dichloro-benzoyl)-thioureido]-phenyl}-amide hydrochloride] | –
9 | 47% | – | 40% | – | – | – | Cc1ccc(C(=O)NC(=S)Nc2ccc(NC(=O)CCCCN(C)C)cc2)cc1 [318a A2, 5-Dimethylamino-pentanoic acid {4-[3-(4-methyl-benzoyl)-thioureido]-phenyl}-amide hydrochloride] | –
10 | 3.5% | – | 43.7% | – | – | – | CN(C)CCCCC(=O)Nc1ccc(NC(=S)NC(=O)c2ccccc2)cc1 [Compound B4, 5-Dimethylamino-pentanoic acid [4-(3-benzoyl-thioureido)-phenyl]-amide hydrochloride] | –

Row | SMILES | inhibition at 60 µM (SIRT1; 60 μM compound) | IC50 (SIRT1) | inhibition at 60 µM (SIRT2; 60 μM compound) | IC50 (SIRT2) | SirT1 (% inhib at 60 μM) (SIRT1; 60 μM compound) | SirT2 (% inhib at 60 μM) (SIRT2; 60 μM compound) | oro red staining (adipogenesis) (3T3L1 cells)
11 | CCCCOc1c(Cl)cc(C(=O)NC(=S)Nc2ccc(NC(=O)CCCCN(C)C)cc2)cc1Cl [Compound 392a, 5-Dimethylamino-pentanoic acid {4-[3-(4-butoxy-3,5-dichloro-benzoyl)-thioureido]-phenyl}-amide hydrochloride] | 90.4% | 22.5 ± 1.3 µM | 96.3% | 0.4 ± 0.4 µM | – | – | –
